Test results: article PMC10052977, “α,ω-Diacyl-Substituted Analogues of Natural and Unnatural Polyamines: Identification of Potent Bactericides That Selectively Target Bacterial Membranes” (International Journal of Molecular Sciences, 2023)
Values after ≈ are worked out from the molar mass of the structure shown. Like-named read-outs stand apart in the source and are kept apart here.

What was measured:
[1] = tested on: Candida albicans ATCC90028; test: Antifungal MIC, CO-ADD; assay type: cell-based; conditions: mean (n = 2)
Description: (§1) For the antifungal assay, fungi strains were cultured for 3 days on YPD agar at 30 °C. A yeast suspension of 1 × 10^6 to 5 × 10^6 CFU/mL was prepared from five colonies. These stock suspensions were diluted with yeast nitrogen base (YNB) (Becton Dickinson, 233520) broth to a final concentration of 2.5 × 10^3 CFU/mL. […] Plates were covered and incubated at 35 °C for 36 h without shaking. C. albicans MICs were determined by measuring the absorbance at OD530. […] Fluconazole was used as a positive fungal inhibitor standard for C. albicans and C. neoformans. […] Quality control (QC) of the assays was determined by antimicrobial controls and Z’-factor (using positive and negative controls).

[2] = tested on: Cryptococcus neoformans ATCC208821; test: Antifungal MIC, CO-ADD; assay type: cell-based; conditions: ATCC208821, Cryptococcus neoformans ATCC208821, mean (n = 2)
Description: as §1

[3] = tested on: Escherichia coli ATCC 25922; test: MIC, CO-ADD broth microdilution; assay type: cell-based; conditions: ATCC25922, mean (n = 2)
human red blood cells = test: Hemolytic assay; assay type: cell-based; conditions: mean (n = 2)
Description: Human whole blood was washed three times with 3 volumes of 0.9% NaCl and then resuspended in same to a concentration of 0.5 × 10^8 cells/mL, as determined by manual cell count in a Neubauer hemocytometer. The washed cells were then added to the 384-well compound-containing plates for a final volume of 50 μL. After a 10 min shake on a plate shaker, the plates were then incubated for 1 h at 37 °C. After incubation, the plates were centrifuged at 1000× g for 10 min to pellet cells and debris; 25 μL of the supernatant was then transferred to a polystyrene 384-well assay plate. Hemolysis was determined by measuring the supernatant absorbance at […] (OD405). The absorbance was measured using a Tecan M1000 Pro monochromator plate reader. HC10 and HC50 (concentration at 10% and 50% hemolysis, respectively) were calculated by curve fitting the inhibition values vs. log (concentration) using a sigmoidal dose–response function with variable fitting values for top, bottom and slope.

[4] = tested on: Pseudomonas aeruginosa PAO1 or ATCC 27853; test: MIC, broth dilution (CA-SFM); assay type: cell-based; conditions: mean (n = 3)
[5] = Cytotoxicity assay (resazurin); assay type: cell-based, human; conditions: human; HEK293 cells; mean (n = 2); highest dose tested 32 μg/mL; read-out: Cytotoxicity (concentration of compound at 50% cytotoxicity, IC50)
MRSA ATCC 43300 = test: MIC, CO-ADD broth microdilution; assay type: cell-based, Staphylococcus aureus; conditions: for MIC: Staphylococcus aureus, read-out: MIC MRSA
[6] = tested on: Acinetobacter baumannii ATCC19606; test: MIC, CO-ADD broth microdilution; assay type: cell-based; conditions: mean (n = 2)
[7] = tested on: Klebsiella pneumoniae ATCC700603; test: MIC, CO-ADD broth microdilution; assay type: cell-based; conditions: mean (n = 2)
[8] = tested on: Staphylococcus aureus ATCC 25923 or ATCC 29213; test: MIC, broth dilution (CA-SFM); assay type: cell-based; conditions: Staphylococcus aureus ATCC 25923 or ATCC 29213; mean (n = 3); read-out: MIC S. a

SMILES | MIC [1] | MIC [2] | MIC [3] | Hemolysis (HC10, concentration at 10% hemolytic activity) (human red blood cells) | MIC [4] | IC50 at 20 h [5] | activity towards MRSA (MRSA ATCC 43300) | MIC (MRSA ATCC 43300; MRSA ATCC 43300, mean (n = 2)) | MIC [6] | MIC [7] | MIC [8] | MIC (MRSA ATCC 43300)
O=C(CCc1ccccc1)NCCCNCCCCCCCCCCNCCCNC(=O)CCc1ccccc1.O=C(O)C(F)(F)F.O=C(O)C(F)(F)F [Compound 13e, N^1,N^10-Bis(3-(3-phenylpropanamido)propyl)decane-1,10-diaminium 2,2,2-trifluoroacetate] | > 41.1 µM | 41.1 µM | 41.1 µM | >41.1 µM | 642 µM | > 41.1 µM | weak | 10.3 µM | > 41.1 µM | > 41.1 µM | 32 µM | –
O=C(CC(c1ccccc1)c1ccccc1)NCCCNCCCCCCNCCCNC(=O)CC(c1ccccc1)c1ccccc1.O=C(O)C(F)(F)F.O=C(O)C(F)(F)F [Compound 15b, N^1,N^6-Bis(3-(3,3-diphenylpropanamido)propyl)hexane-1,6-diaminium 2,2,2-trifluoroacetate] | > 36.6 µM | > 36.6 µM | 4.6 µM | >36.6 µM | 100 µM | > 36.6 µM | – | ≤ 0.29 µM | > 36.6 µM | > 36.6 µM | 12.5 µM | –
O=C(CCC(=O)NCCCc1ccccc1)NCCCNCCCCCCNCCCNC(=O)CCC(=O)NCCCc1ccccc1 [Compound 14b, N^1,N^6-Bis(3-(4-oxo-4-((3-phenylpropyl)amino)butanamido)propyl)hexane-1,6-diaminium 2,2,2-trifluoroacetate] | > 35.8 µM | > 35.8 µM | > 35.8 µM | – | > 200 µM | – | – | > 35.8 µM | > 35.8 µM | > 35.8 µM | > 200 µM | –
O=C(CCC(=O)NCCCc1ccccc1)NCCCNCCCCCCCCCCNCCCNC(=O)CCC(=O)NCCCc1ccccc1.O=C(O)C(F)(F)F.O=C(O)C(F)(F)F [Compound 14e, N^1,N^10-Bis(3-(4-oxo-4-((3-phenylpropyl)amino)butanamido)propyl)decane-1,10-diaminium 2,2,2-trifluoroacetate] | > 33.7 µM | 33.7 µM | 33.7 µM | >33.7 µM | > 200 µM | > 33.7 µM | weak | 4.21 µM | > 33.7 µM | > 33.7 µM | 100 µM | –
O=C(CCC(=O)NCCCc1ccccc1)NCCCNCCCCCCCCNCCCNC(=O)CCC(=O)NCCCc1ccccc1.O=C(O)C(F)(F)F.O=C(O)C(F)(F)F [Compound 14d, N^1,N^8-Bis(3-(4-oxo-4-((3-phenylpropyl)amino)butanamido)propyl)octane-1,8-diaminium 2,2,2-trifluoroacetate] | > 34.7 µM | > 34.7 µM | > 34.7 µM | >34.7 µM | > 100 µM | > 34.7 µM | – | > 34.7 µM | > 34.7 µM | > 34.7 µM | > 100 µM | –
O=C(CCC(=O)NCCC(c1ccccc1)c1ccccc1)NCCCNCCCCCCCCCCCCNCCCNC(=O)CCC(=O)NCCC(c1ccccc1)c1ccccc1 [Compound 16f, N^1,N^12-Bis(3-(4-((3,3-diphenylpropyl)amino)-4-oxobutanamido)propyl)dodecane-1,12-diaminium 2,2,2-trifluroracetate] | > 28.3 µM | > 28.3 µM | > 28.3 µM | 3.17 µM | 300 µM (≈ 270 µg/mL) | > 28.3 µM | – | ≤ 0.22 µM | > 28.3 µM | > 28.3 µM | 3.13 µM (≈ 2.82 µg/mL) | –
O=C(CCc1ccccc1)NCCCNCCCCCCCNCCCNC(=O)CCc1ccccc1.O=C(O)C(F)(F)F.O=C(O)C(F)(F)F [Compound 13c, N^1,N^7-Bis(3-(3-phenylpropanamido)propyl)heptane-1,7-diaminium 2,2,2-trifluoroacetate] | > 43.4 µM | > 43.4 µM | > 43.4 µM | >43.4 µM | > 271 µM | > 43.4 µM | – | > 43.4 µM | > 43.4 µM | > 43.4 µM | > 271 µM | –
CN[C@H](CC(C)C)C(=O)N[C@H]1C(=O)N[C@@H](CC(N)=O)C(=O)N[C@H]2C(=O)N[C@H]3C(=O)N[C@H](C(=O)N[C@H](C(=O)O)c4cc(O)cc(O)c4-c4cc3ccc4O)[C@H](O)c3ccc(c(Cl)c3)Oc3cc2cc(c3O[C@@H]2O[C@H](CO)[C@@H](O)[C@H](O)[C@H]2O[C@H]2C[C@](C)(N)[C@H](O)[C@H](C)O2)Oc2ccc(cc2Cl)[C@H]1O [vancomycin, reference compound] | – | – | – | – | – | – | – | – | – | – | – | 0.7 µM (≈ 1.01 µg/mL)
[H]/N=C(/N)N[C@H]1[C@H](O)[C@@H](O)[C@H](O[C@@H]2O[C@@H](C)[C@](O)(C=O)[C@H]2O[C@@H]2O[C@@H](CO)[C@H](O)[C@@H](O)[C@@H]2NC)[C@@H](N/C(N)=N\[H])[C@@H]1O [streptomycin, reference compound] | – | – | – | – | 21.5 µM (≈ 12.5 µg/mL) | – | – | – | – | – | 21.5 µM (≈ 12.5 µg/mL) | –
Cl.Cl.S=C(NCCCNCCCCCCNCCCNC(=S)NC(c1ccccc1)c1ccccc1)NC(c1ccccc1)c1ccccc1 [Compound 6b, N^1,N^6-Bis(3-(3-benzhydrylthioureido)propyl)hexane-1,6-diaminium chloride] | ≤ 0.33 µM | > 42.4 µM | ≤ 0.33 µM | 2.96 µM | 265 µM | > 42.4 µM | – | ≤ 0.33 µM | 10.7 µM | > 42.4 µM | > 265 µM | –
O=C(NCCCNCCCCCCCNCCCNC(=O)C(c1ccccc1)(c1ccccc1)c1ccccc1)C(c1ccccc1)(c1ccccc1)c1ccccc1.O=C(O)C(F)(F)F.O=C(O)C(F)(F)F [Compound 17c, N^1,N^7-Bis(3-(2,2,2-triphenylacetamido)propyl)heptane-1,7-diaminium 2,2,2-trifluoroacetate] | 15.8 µM | 15.8 µM | 7.9 µM | 8.16 µM | 300 µM | ≤ 0.247 µM | – | < 0.25 µM | 3.95 µM | 31.6 µM | 12.5 µM | –
O=C(CCc1ccccc1)NCCCNCCCCCCCCNCCCNC(=O)CCc1ccccc1.O=C(O)C(F)(F)F.O=C(O)C(F)(F)F [Compound 13d, N^1,N^8-Bis(3-(3-phenylpropanamido)propyl)octane-1,8-diaminium 2,2,2-trifluoroacetate] | > 42.6 µM | > 42.6 µM | > 42.6 µM | >42.6 µM | > 266 µM | > 42.6 µM | – | > 42.6 µM | > 42.6 µM | > 42.6 µM | > 266 µM | –
O=C(CCC(=O)NCCCc1ccccc1)NCCCNCCCCCCCNCCCNC(=O)CCC(=O)NCCCc1ccccc1 [Compound 14c, N^1,N^7-Bis(3-(4-oxo-4-((3-phenylpropyl)amino)butanamido)propyl)heptane-1,7-diaminium 2,2,2-trifluoroacetate] | > 35.3 µM | > 35.3 µM | > 35.3 µM | – | > 200 µM | – | – | > 35.3 µM | > 35.3 µM | > 35.3 µM | 200 µM (≈ 136 µg/mL) | –
CC/C(=C(\c1ccccc1)c1ccc(OCCN(C)C)cc1)c1ccccc1 [Tamoxifen, reference compound] | – | – | – | – | – | 24 µM | – | – | – | – | – | –
O=C(N[C@H](CO)[C@H](O)c1ccc([N+](=O)[O-])cc1)C(Cl)Cl [chloramphenicol, reference compound] | – | – | – | – | – | – | – | – | – | – | 1.5 to 3 µM (≈ 0.485 to 0.969 µg/mL) | –
OC(Cn1cncn1)(Cn1cncn1)c1ccc(F)cc1F [fluconazole, reference compound] | 0.4 µM (≈ 0.123 µg/mL) | 26 µM (≈ 7.96 µg/mL) | – | – | – | – | – | – | – | – | – | –
O=C(CCc1ccccc1)NCCCNCCCCNCCCNC(=O)CCc1ccccc1 [Compound 13a, N^1,N^4-Bis(3-(3-phenylpropanamido)propyl)butane-1,4-diaminium 2,2,2-trifluoroacetate] | > 46.1 µM | > 46.1 µM | > 46.1 µM | – | 720 µM (≈ 336 µg/mL) | – | – | > 46.1 µM | > 46.1 µM | > 46.1 µM | 720 µM (≈ 336 µg/mL) | –
C[C@H]1c2cccc(O)c2C(=O)C2=C(O)[C@]3(O)C(=O)C(C(N)=O)=C(O)[C@@H](N(C)C)[C@@H]3[C@@H](O)[C@@H]21 [doxycycline, reference compound] | – | – | – | – | 90 µM (≈ 40 µg/mL) | – | – | – | – | – | – | –
